The structures appear in SMILES notation. Read-outs that look alike come from different tables or passages of the source.

The nature of the series: Log P by HPLC on reversed phase columns (EEC directive 79/831 Annex V.A8). Type of series: physicochemical. On the procedure: Measurement of Log P values was performed according to EEC directive 79/831 Annex V.A8 by HPLC (High Performance Liquid Chromatography) on reversed phase columns with the following methods: • [^a]
If more than one Log P value is available within the same method, all the values are given and separated by “+”.
Calibration was done with straight-chain alkan2-ones (with 3 to 16 carbon atoms) with known Log P values (measurement of Log P values using retention times with linear interpolation between successive alkanones). Lambda-max-values were determined using UV-spectra from 200 nm to 400 nm and the peak values of the chromatographic signals.

Setting [1] is: method [a]: LC-UV, acidic range, 0.1% formic acid in water and acetonitrile, compounds of formula (I), read-out: Log P.
[2] abbreviates: reversed phase HPLC columns, method [a]: LC-UV, acidic range, 0.1% formic acid in water and acetonitrile, compounds of formula (I), read-out: Log P.

For the compound `FC(F)(F)c1nc(-c2ccc3nn(Cc4ccccc4)cc3c2)no1` [IV-15, 2-Benzyl-5-[5-(trifluoromethyl)-1,2,4-oxadiazol-3-yl]-1H-indazole], the chromatographic logP (reversed phase HPLC columns, method [a]: LC-UV, acidic range, 0.1% formic acid in water and acetonitrile, intermediates of formula (IV), read-out: LogP) worked out at 4.03.

As to `FC(F)(F)c1nc(-c2ccc3c(cnn3Cc3ccccc3)c2)no1` [IV-17, 1-Benzyl-5-[5-(trifluoromethyl)-1,2,4-oxadiazol-3-yl]-1H-indazole], the chromatographic logP came to 4.39.

Take `CC(=O)N1C(c2ccc(OC(=O)N(C)C)cc2)=NOC1C(F)(F)F` (stereo not shown) [Compound I-16, 4-[Acetyl-5-(trifluoromethyl)-4,5-dihydro-1,2,4-oxadiazol-3-yl]phenyl dimethylcarbamate]: the chromatographic logP under setting [1] worked out at 2.62.

For `CN(C)C(=O)Oc1ccc(-c2noc(C(F)(F)F)n2)cc1` [IV-05, 4-[5-(Trifluoromethyl)-1,2,4-oxadiazol-3-yl]phenyl dimethylcarbamate], the chromatographic logP (method [a]: LC-UV, acidic range, 0.1% formic acid in water and acetonitrile, intermediates of formula (IV), read-out: LogP) was 3.37.

On to `FC(F)(F)C1NC(c2ccc3nn(Cc4ccccc4)cc3c2)=NO1` (stereo not shown) [Compound I-24, 2-Benzyl-5-[(trifluoromethyl)-4,5-dihydro-1,2,4-oxadiazol-3-yl]-2H-indazole], for which, under setting [2], the chromatographic logP amounted to 2.69.

As to `CN(C)C(=O)Oc1ccc(C2=NOC(C(F)(F)F)N2)cc1` (stereo not shown) [Compound I-03, 4-[5-(Trifluoromethyl)-4,5-dihydro-1,2,4-oxadiazol-3-yl]phenyl dimethylcarbamate], under setting [1], the chromatographic logP came to 2.19.

In the case of `FC(F)(F)C1NC(c2ccc3c(cnn3Cc3ccccc3)c2)=NO1` (stereo not shown) [Compound I-23, 1-Benzyl-5-[(trifluoromethyl)-4,5-dihydro-1,2,4-oxadiazol-3-yl]-2H-indazole], under setting [2], the chromatographic logP is 3.

The values are drawn from US20210147371A1, “OXADIAZOLINE DERIVATIVES” (Bayer Aktiengesellschaft, priority 2018, published 2021).
